Source: PubChem BioAssay AID248 (DTP/NCI, 2004)
Values joined by “and” are separate entries in the source; they are usually repeats but may differ in a detail not shown here. Equal values may be shown once. Inconclusive results and toxic doses are left out. Cut-off read from the data, not from the text of the source: active = T/C of 150% or more; inactive = T/C below 125%.

Test system: L1210 leukemia ip in BDF1 mice, survival T/C
Assay: NCI In Vivo Anticancer Drug Screen. Data for tumor model L1210 Leukemia (intraperitoneal) in B6D2F1 (BDF1) mice
Conditions: higher = longer survival
How it was run: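 Each compound was tested against a transplantable tumor grown in mice. The endpoint was survival, with treated animals benchmarked against vehicle controls as a simple ratio.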

[1] = endpoint: mean survival time, dose: 100.0 mg/kg/injection, schedule: Q04DX003 (ip), vehicle: saline with Tween-80
[2] = endpoint: mean survival time, dose: 200.0 mg/kg/injection, schedule: Q04DX003 (ip), vehicle: saline with Tween-80
[3] = endpoint: mean survival time, dose: 400.0 mg/kg/injection, schedule: Q04DX003 (ip), vehicle: saline with Tween-80
[4] = endpoint: mean survival time, dose: 12.5 mg/kg/injection, schedule: Q04DX003 (ip), vehicle: Klucel (hydroxypropylcellulose) (HPC)
[5] = endpoint: mean survival time, dose: 25.0 mg/kg/injection, schedule: Q04DX003 (ip), vehicle: Klucel (hydroxypropylcellulose) (HPC)
[6] = endpoint: mean survival time, dose: 50.0 mg/kg/injection, schedule: Q04DX003 (ip), vehicle: Klucel (hydroxypropylcellulose) (HPC)
[7] = endpoint: mean survival time, dose: 100.0 mg/kg/injection, schedule: Q01DX001 (ip), vehicle: saline
[8] = endpoint: mean survival time, dose: 100.0 mg/kg/injection, schedule: Q04DX002 (ip), vehicle: Klucel (hydroxypropylcellulose) (HPC)
[9] = endpoint: mean survival time, dose: 200.0 mg/kg/injection, schedule: Q04DX002 (ip), vehicle: Klucel (hydroxypropylcellulose) (HPC)
[10] = endpoint: mean survival time, dose: 400.0 mg/kg/injection, schedule: Q04DX002 (ip), vehicle: Klucel (hydroxypropylcellulose) (HPC)
[11] = endpoint: mean survival time, dose: 100.0 mg/kg/injection, schedule: Q01DX009 (ip), vehicle: saline with Tween-80

Measured: T/C

O=C1SCCC1NP(=O)(OCc1ccccc1)OCc1ccccc1 (centres undefined)
inactive: endpoint: mean survival time, dose: 100.0 mg/kg/injection, schedule: Q01DX001 (ip), vehicle: saline with Tween-80 102 % of control | endpoint: mean survival time, dose: 200.0 mg/kg/injection, schedule: Q01DX001 (ip), vehicle: saline with Tween-80 102 % of control | endpoint: mean survival time, dose: 400.0 mg/kg/injection, schedule: Q01DX001 (ip), vehicle: saline with Tween-80 98 % of control

C=C(C)C(=O)OCC1COc2c(cc(O)c(C)c2C)C1 (centres undefined)
inactive: [1] 107 % of control | [2] 98 % of control | [3] 98 % of control

CC(O)(C#N)C(F)(F)F (centres undefined)
inactive: endpoint: mean survival time, dose: 75.0 mg/kg/injection, schedule: Q01DX001 (ip), vehicle: saline 102 % of control | endpoint: mean survival time, dose: 150.0 mg/kg/injection, schedule: Q01DX001 (ip), vehicle: saline 91 % of control | endpoint: mean survival time, dose: 300.0 mg/kg/injection, schedule: Q01DX001 (ip), vehicle: saline 105 % of control

CC(C)CCCC(C)C1CCC2C3CCC45CC4C(=O)CCC5(C)C3CCC12C (centres undefined)
inactive: endpoint: mean survival time, dose: 100.0 mg/kg/injection, schedule: Q01DX009 (ip), vehicle: acetone 87 % of control and 96 % of control | endpoint: mean survival time, dose: 200.0 mg/kg/injection, schedule: Q01DX009 (ip), vehicle: acetone 103 % of control | endpoint: mean survival time, dose: 400.0 mg/kg/injection, schedule: Q01DX009 (ip), vehicle: acetone 89 % of control and 94 % of control

CC[CH2][Pb]([Cl])([CH2]CC)[CH2]CC
inactive: [4] 106 % of control | [5] 95 % of control | [6] 90 % of control

CN(C)c1ccc(/C=C2\C=Nc3ccccc32)cc1
inactive: [1] 87 % of control | [2] 87 % of control | [3] 87 % of control

C=CCn1c(-c2cccs2)nc2c(=S)nc[nH]c21
inactive: endpoint: mean survival time, dose: 65.0 mg/kg/injection, schedule: Q01DX009 (ip), vehicle: steriod suspending solution 95 % of control | endpoint: mean survival time, dose: 180.0 mg/kg/injection, schedule: Q01DX009 (ip), vehicle: steriod suspending solution 88 % of control | endpoint: mean survival time, dose: 400.0 mg/kg/injection, schedule: Q01DX001 (ip), vehicle: steriod suspending solution 89 % of control | endpoint: mean survival time, dose: 800.0 mg/kg/injection, schedule: Q01DX001 (ip), vehicle: steriod suspending solution 89 % of control

CCOC(=O)NC1=C(N2CC2C)C(=O)C(NC(=O)OCC)=C(N2CC2C)C1=O (centres undefined)
inactive: endpoint: mean survival time, dose: 0.93 mg/kg/injection, schedule: Q01DX009 (ip), vehicle: Klucel (hydroxypropylcellulose) (HPC) 94 % of control and 100 % of control | endpoint: mean survival time, dose: 1.87 mg/kg/injection, schedule: Q01DX009 (ip), vehicle: Klucel (hydroxypropylcellulose) (HPC) 97 % of control and 107 % of control | endpoint: mean survival time, dose: 3.12 mg/kg/injection, schedule: Q04DX003 (ip), vehicle: Klucel (hydroxypropylcellulose) (HPC) 106 % of control | endpoint: mean survival time, dose: 3.75 mg/kg/injection, schedule: Q01DX009 (ip), vehicle: Klucel (hydroxypropylcellulose) (HPC) 98 % of control and 100 % of control | endpoint: mean survival time, dose: 6.25 mg/kg/injection, schedule: Q04DX003 (ip), vehicle: Klucel (hydroxypropylcellulose) (HPC) 95 % of control | endpoint: mean survival time, dose: 7.5 mg/kg/injection, schedule: Q01DX009 (ip), vehicle: Klucel (hydroxypropylcellulose) (HPC) 102 % of control and 91 % of control | [4] 106 % of control | endpoint: mean survival time, dose: 15.0 mg/kg/injection, schedule: Q01DX009 (ip), vehicle: Klucel (hydroxypropylcellulose) (HPC) 91 % of control | [5] 112 % of control | [6] 110 % of control

O=Cc1cc2c(cc1[N+](=O)[O-])OCO2
inactive: endpoint: mean survival time, dose: 100.0 mg/kg/injection, schedule: Q04DX003 (ip), vehicle: Klucel (hydroxypropylcellulose) (HPC) 94 % of control | [1] 101 % of control | endpoint: mean survival time, dose: 200.0 mg/kg/injection, schedule: Q04DX003 (ip), vehicle: Klucel (hydroxypropylcellulose) (HPC) 96 % of control | [2] 97 % of control | endpoint: mean survival time, dose: 400.0 mg/kg/injection, schedule: Q04DX003 (ip), vehicle: Klucel (hydroxypropylcellulose) (HPC) 92 % of control | [3] 95 % of control

CC12CCC(CC1Cl)C2 (centres undefined)
inactive: endpoint: mean survival time, dose: 50.0 mg/kg/injection, schedule: Q01DX001 (ip), vehicle: carboxymethylcellulose (CMC) 93 % of control | endpoint: mean survival time, dose: 100.0 mg/kg/injection, schedule: Q01DX001 (ip), vehicle: carboxymethylcellulose (CMC) 91 % of control | endpoint: mean survival time, dose: 200.0 mg/kg/injection, schedule: Q01DX001 (ip), vehicle: carboxymethylcellulose (CMC) 91 % of control | endpoint: mean survival time, dose: 400.0 mg/kg/injection, schedule: Q01DX001 (ip), vehicle: carboxymethylcellulose (CMC) 96 % of control

NC(=S)N/N=C\c1cc2ccccc2c2ccccc12
inactive: endpoint: mean survival time, dose: 50.0 mg/kg/injection, schedule: Q01DX001 (ip), vehicle: saline 95 % of control | [7] 95 % of control | endpoint: mean survival time, dose: 200.0 mg/kg/injection, schedule: Q01DX001 (ip), vehicle: saline 95 % of control | endpoint: mean survival time, dose: 400.0 mg/kg/injection, schedule: Q01DX001 (ip), vehicle: saline 98 % of control

CCOC(=O)/C(C#N)=C/c1cccn1Cc1ccc2c(c1)OCO2
inactive: endpoint: mean survival time, dose: 25.0 mg/kg/injection, schedule: Q04DX002 (ip), vehicle: saline 101 % of control | endpoint: mean survival time, dose: 50.0 mg/kg/injection, schedule: Q04DX002 (ip), vehicle: saline 105 % of control | endpoint: mean survival time, dose: 100.0 mg/kg/injection, schedule: Q04DX002 (ip), vehicle: saline 105 % of control

CCC(C)CC(C)c1ccncc1 (centres undefined)
inactive: endpoint: mean survival time, dose: 5.0 mg/kg/injection, schedule: Q01DX001 (ip), vehicle: saline 97 % of control | endpoint: mean survival time, dose: 10.0 mg/kg/injection, schedule: Q01DX001 (ip), vehicle: saline 100 % of control | endpoint: mean survival time, dose: 20.0 mg/kg/injection, schedule: Q01DX001 (ip), vehicle: saline 100 % of control | endpoint: mean survival time, dose: 40.0 mg/kg/injection, schedule: Q01DX001 (ip), vehicle: saline 97 % of control | endpoint: mean survival time, dose: 80.0 mg/kg/injection, schedule: Q01DX001 (ip), vehicle: saline 97 % of control | [7] 97 % of control

COC(=O)CCCCn1ccc(=O)[nH]c1=O
inactive: [8] 100 % of control | [9] 104 % of control | [10] 100 % of control

O=C(O)COc1cc(F)ccc1[N+](=O)[O-]
inactive: [8] 91 % of control | [9] 102 % of control | [10] 107 % of control

OC1OC2COC(c3ccccc3)OC2C(O)C1O (centres undefined)
inactive: endpoint: median survival time, dose: 25.0 mg/kg/injection, schedule: Q01DX009 (ip), vehicle: water 106 % of control | endpoint: median survival time, dose: 50.0 mg/kg/injection, schedule: Q01DX009 (ip), vehicle: water 106 % of control | endpoint: median survival time, dose: 100.0 mg/kg/injection, schedule: Q01DX009 (ip), vehicle: water 97 % of control | endpoint: median survival time, dose: 200.0 mg/kg/injection, schedule: Q01DX009 (ip), vehicle: water 100 % of control | endpoint: median survival time, dose: 400.0 mg/kg/injection, schedule: Q01DX009 (ip), vehicle: water 101 % of control | endpoint: median survival time, dose: 800.0 mg/kg/injection, schedule: Q01DX009 (ip), vehicle: water 96 % of control

NC(N)=NCCCC(N=Cc1ccccc1)C(=O)O (centres undefined)
inactive: endpoint: mean survival time, dose: 100.0 mg/kg/injection, schedule: Q01DX009 (ip), vehicle: saline 97 % of control | endpoint: mean survival time, dose: 200.0 mg/kg/injection, schedule: Q01DX009 (ip), vehicle: saline 101 % of control | endpoint: mean survival time, dose: 400.0 mg/kg/injection, schedule: Q01DX009 (ip), vehicle: saline 98 % of control

Nc1nc(-c2ccccc2)cs1
inactive: endpoint: mean survival time, dose: 25.0 mg/kg/injection, schedule: Q01DX009 (ip), vehicle: saline with Tween-80 106 % of control | endpoint: mean survival time, dose: 25.0 mg/kg/injection, schedule: Q04DX003 (ip), vehicle: saline with Tween-80 100 % of control | endpoint: mean survival time, dose: 50.0 mg/kg/injection, schedule: Q01DX009 (ip), vehicle: saline with Tween-80 108 % of control | endpoint: mean survival time, dose: 50.0 mg/kg/injection, schedule: Q04DX003 (ip), vehicle: saline with Tween-80 92 % of control | [11] 106 % of control | [1] 92 % of control

Cc1ccc(C(C)C)cc1OCO
inactive: endpoint: mean survival time, dose: 20.0 mg/kg/injection, schedule: Q01DX Z (ip), vehicle: methylcellulose (MC) 98 % of control | endpoint: mean survival time, dose: 30.0 mg/kg/injection, schedule: Q01DX Z (ip), vehicle: methylcellulose (MC) 105 % of control

Brc1ccc(Oc2ccccc2)cc1
inactive: [11] 101 % of control | [1] 102 % of control | endpoint: mean survival time, dose: 200.0 mg/kg/injection, schedule: Q01DX009 (ip), vehicle: saline with Tween-80 95 % of control | [2] 97 % of control | endpoint: mean survival time, dose: 400.0 mg/kg/injection, schedule: Q01DX009 (ip), vehicle: saline with Tween-80 97 % of control | [3] 108 % of control
